Reference: patent US7923448B2, “Purine receptor inhibition as a therapeutic strategy in spinal cord and brain” (priority 2003, dated 2011)
pKd: −log10 of the molar value. “Also recorded” adds a separate entry of the source. Blank lines part the entries; values can stand above or below the compound they belong to.

What was measured:
non-injured spinal cord = test: Injection of ATP or ATP analogs into the non-injured spinal cord, TUNEL staining; format: in vivo, rat; conditions: 10 mM, 2 μl injected just lateral to the dorsal horn, 24 hrs later
Procedure: (§1) Adult female Spague-Dawley rats (220-250 g) were anesthetized with pentobarbital (50 mg/kg i.p.). When unresponsive, a double level laminectomy was performed at the T11 and T12 vertebrae. […] The tip of the rod was reduced to 1 mm to avoid direct traumatic injury of the dorsal venous complex. ATP and agonists (10 mM, 2 μl) were stereotaxically injected into T12 just lateral to the dorsal horn. All agents were purchased from Sigma.
The rats were anesthetized with ketamine (60 mg/kg) and xylazine (10 mg/kg). After 12 hours post-fixation, the spinal cord is cryoprotected in 30% sucrose and cut in serial 20 μm para-saggital sections. Myelin was visualized with Luxol fast blue (Basso et al., “A Sensitive and Reliable Locomotor Rating Scale for Open Field Testing in Rats,” J Neurotrauma 12:1-21 (1995) and Nedergaard et al., “Characterization of Cortical Depolarization Evoked in Focal Cerebral Ischemia,” J Cereb Blood Flow Metab 13:568-574 (1993), which are hereby incorporated by reference in their entirety)). Immunohistochemistry and TUNEL staining were performed as described in (Lin et al., “Gap-Junction-Mediated Propagation and Amplification of Cell Injury,” Nat Neurosci 1:494-500 (1998); Lin et al., “Connexin Mediates Gap Junction-Independent Resistance to Cellular Injury,” J Neurosci 23:430-441 (2003); and Takano et al., “Glutamate Release Promotes Growth of Malignant Glioma,” Nat Med 7:1010-1015 (2001), which are hereby incorporated by reference in their entirety)). Immunofluorescence was visualized using confocal microscopy (BioRad MRC1024) and images analyzed by Metamorph software (Universal Imaging Corp.).
It was then determined whether increased extracellular ATP in itself, in the non-injured spinal cord, was sufficient for induction of cell death. ATP or ATP analogs, all in a concentration of 10 mM (2 μl), were injected into the spinal cord just lateral to the dorsal horn. A large number of TUNEL-positive cells were present 24 hrs later in both gray and white matter (FIG. 2F). […] These observations indicate that raising extracellular ATP concentration is sufficient for induction of cell death in the non-injured spinal cord. In this regard, P2X7 receptors are expressed by most immune cells and their activation leads to multiple downstream events, including cell permeabilization and apoptosis (Chow et al., “Purines and Their Roles in Apoptosis,” Neuropharmacology 36:1149-1156 (1997) and Di Virgilio et al., “Cytolytic P2X Purinoceptors,” Cell Death Differ 5:191-199 (1998), which are hereby incorporated by reference in their entirety)).

P2X7 receptors [1] = biological target: T1, P2X7 receptors (Rattus norvegicus, UniProt Q64663); test: Current clamp recording of spiking in spinal cord neurons (slices); conditions: for spiking (action potential firing) of spinal cord neurons: 100 μM, current clamp; for effect on BzATP-induced increase in spike rate (FIG. 4 legend): BzATP 100 μM, OxATP 100 μM, NBQX 10 μM and CPP 5 μM applied combined
T1 sequence (Q64663 1-595): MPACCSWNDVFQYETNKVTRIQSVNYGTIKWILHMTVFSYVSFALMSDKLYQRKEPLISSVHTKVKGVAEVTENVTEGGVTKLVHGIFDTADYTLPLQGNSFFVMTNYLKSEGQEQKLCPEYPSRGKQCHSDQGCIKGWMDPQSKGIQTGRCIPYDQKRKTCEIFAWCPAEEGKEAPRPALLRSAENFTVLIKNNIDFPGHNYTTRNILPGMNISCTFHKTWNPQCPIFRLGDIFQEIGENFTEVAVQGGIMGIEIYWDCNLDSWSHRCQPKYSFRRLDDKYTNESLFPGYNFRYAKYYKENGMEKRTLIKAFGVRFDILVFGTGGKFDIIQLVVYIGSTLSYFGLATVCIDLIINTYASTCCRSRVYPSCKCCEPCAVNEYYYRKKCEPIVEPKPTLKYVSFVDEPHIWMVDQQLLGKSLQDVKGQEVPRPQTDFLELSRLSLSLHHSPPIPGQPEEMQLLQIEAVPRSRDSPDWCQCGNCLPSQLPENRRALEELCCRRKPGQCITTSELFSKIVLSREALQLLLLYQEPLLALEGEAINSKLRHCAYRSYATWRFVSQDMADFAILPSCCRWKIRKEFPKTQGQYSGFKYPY

P2X7 receptors [2] = biological target: T1, P2X7 receptors; test: Two-photon calcium imaging (fluo-4) of neurons in spinal cord slices; conditions: 100 μM; for cytosolic calcium concentration (fluo-4 emission) during bath application: 20 min agonist exposure, spinal cord slices
spinal cord injury [3] = test: Weight-drop spinal cord injury, TUNEL-positive cells surrounding the lesion; format: in vivo, rat; conditions: 1 mM, 2 μl injected locally into the peri-traumatic zone immediately prior to impact; 24 hrs
Procedure: as §1
The rats were anesthetized with ketamine (60 mg/kg) and xylazine (10 mg/kg). After 12 hours post-fixation, the spinal cord is cryoprotected in 30% sucrose and cut in serial 20 μm para-saggital sections. Myelin was visualized with Luxol fast blue (Basso et al., “A Sensitive and Reliable Locomotor Rating Scale for Open Field Testing in Rats,” J Neurotrauma 12:1-21 (1995) and Nedergaard et al., “Characterization of Cortical Depolarization Evoked in Focal Cerebral Ischemia,” J Cereb Blood Flow Metab 13:568-574 (1993), which are hereby incorporated by reference in their entirety)). […] Immunofluorescence was visualized using confocal microscopy (BioRad MRC1024) and images analyzed by Metamorph software (Universal Imaging Corp.).
It was next determined whether OxATP protected against cell death in the area of high ATP release following spinal cord injury. […]

spinal cord injury [4] = test: Weight-drop spinal cord injury, BBB open field locomotor rating scale; format: in vivo, rat; conditions: 1 mM, 2 μl local pretreatment; n=14
Procedure: as §1
The animals were evaluated daily for 2 weeks after injury and later on a biweekly basis.
It was next determined whether OxATP protected against cell death in the area of high ATP release following spinal cord injury. OxATP (1 mM, 2 μl) was injected locally into the peri-traumatic zone immediately prior to impact. […] The BBB open field locomotor rating scale was used to evaluate recovery of rats receiving OxATP versus vehicle treated control.

spiking rate versus BzATP dose (P2X7 receptors [1]; n=5-9): increases in a dose-dependent manner
pKd (P2X7 receptors [1]; read-out: kd (affinity, spiking response), spinal cord neurons): 4.62
calcium elevation after washout (P2X7 receptors [2]; 20 min exposure followed by 20 min washout): failed to recover after washout
Compound: BzATP
apoptosis (TUNEL-positive cells) after injection into spinal cord (non-injured spinal cord): induced apoptosis with a potency equivalent to ATP
spiking (action potential firing) of spinal cord neurons (P2X7 receptors [1]): increase spiking rate; also recorded: induced high frequency spiking
cytosolic calcium concentration (fluo-4 emission) during bath application (P2X7 receptors [2]): sustained increase in cytosolic calcium concentration

Compound: Nc1ncnc2c1ncn2[C@@H](C=O)O[C@@H](C=O)COP(=O)(O)OP(=O)(O)OP(=O)(O)O [OxATP, oxidized ATP]
number of TUNEL positive cells surrounding the lesion versus vehicle controls (spinal cord injury [3]): highly significant reduction
BBB score difference versus vehicle, first week of recovery (spinal cord injury [4]): 2-4 points
functional recovery (BBB) versus vehicle-treated controls (spinal cord injury [4]): significant improved recovery
effect on BzATP-induced increase in spike rate (FIG. 4 legend) (P2X7 receptors [1]): prevented BzATP-induced increase in spike rate
effect on agonist-increased spiking activity (P2X7 receptors [1]; pretreatment, OxATP 300 μM, ATP or BzATP 100 μM): attenuated

Compound: Nc1ncnc2c1ncn2[C@@H]1O[C@H](COP(=O)(O)CP(=O)(O)OP(=O)(O)O)[C@@H](O)[C@H]1O [αβATP]
apoptosis (TUNEL-positive cells) after injection into spinal cord (non-injured spinal cord): not associated with significant injury

Compound: CSc1nc(N)c2ncn([C@@H]3O[C@H](COP(=O)(O)OP(=O)(O)OP(=O)(O)O)[C@@H](O)[C@H]3O)c2n1 [2MeSATP]
apoptosis (TUNEL-positive cells) after injection into spinal cord (non-injured spinal cord): not associated with significant injury

Compound: Nc1ncnc2c1ncn2[C@@H]1O[C@H](COP(=O)(O)OP(=O)(O)OP(O)(O)=S)[C@@H](O)[C@H]1O [ATPγS]
apoptosis (TUNEL-positive cells) after injection into spinal cord (non-injured spinal cord): highest extent of apoptosis

Compound: Nc1ncnc2c1ncn2[C@@H]1O[C@H](COP(=O)(O)OP(=O)(O)OP(=O)(O)O)[C@@H](O)[C@H]1O [ATP]
apoptosis (TUNEL-positive cells) after injection into spinal cord (non-injured spinal cord): induced a significant extent of apoptosis
spiking (action potential firing) of spinal cord neurons (P2X7 receptors [1]): increase spiking rate; also recorded: induced high frequency spiking
cytosolic calcium concentration (fluo-4 emission) during bath application (P2X7 receptors [2]): sustained increase in cytosolic calcium concentration

Compound: O=C(O)C1CN(CCCP(=O)(O)O)CCN1 (stereo not shown) [CPP]
effect on BzATP-induced increase in spike rate (FIG. 4 legend) (P2X7 receptors [1]): no significant effect

effect on BzATP-induced increase in spike rate (FIG. 4 legend) (P2X7 receptors [1]): no significant effect
Compound: NBQX
